Results: patent US20250281503A1, “DO3A-BASED ANTITHROMBOTIC AGENT OR HEMOLYTIC AGENT CONTAINING GADOLINIUM COMPLEX” (ETNOVA THERAPEUTICS CORP., priority 2022, published 2025)

System: Rat platelets
Test: Platelet aggregation inhibition (4-channel platelet lumi-aggregometer)
Assay type: cell-based
Conditions: compound 100 μM, compared to control (vehicle), FIG. 2
Procedure: In order to evaluate the platelet aggregation activity of MBP-11902 according to Present Example 1 of the present disclosure, the platelet aggregation was activated in rat plasma with platelet aggregation factors and agonists, thrombin, collagen, ADP (adenosine diphosphate), U46619 (thromboxane A2 agonist), and PMA (phorbol-12-myristate-13-acetate), and then, the rat plasma was pretreated with vehicle (distilled water) and various doses (100, 300, and 500 μM) of MBP-11902, and then a 4-channel platelet lumi-aggregometer (Chronolog Corp, Havertown, PA) was used to measure the value indicating the platelet aggregation level, and the results are shown in FIG. 1. […]
Rat platelets were placed in HEPES-Tyrode buffer at a concentration of 3×10^8 cells/mL and pretreated with the vehicle (distilled water) and various doses (100, 300, and 500 μM) of MBP-11902 at 37° C. for 15 minutes, and then activated with collagen, thrombin, ADP, U46619 (endoperoxide/thromboxane analogs), and PMA (PKC activator), which are known as agonists in the platelet aggregation system. The platelet aggregation was induced at 1,000 rpm in a platelet aggregation system (Chronolog Corp, Havertown, PA) at 37° C. and then, the platelet aggregation level was measured.

## O=C(O)c1cc(-c2ccc(F)cc2F)ccc1O [NSAID, Diflunisal]
Collagen 1 μg/mL
  platelet aggregation induced by collagen (comparative evaluation): significantly inhibit
Thrombin 0.05 U/ml
  platelet aggregation induced by thrombin (comparative evaluation): significantly inhibit
